≈ marks a conversion by molar mass, not a printed value.
Assays:
[1] = target: T1, 11-beta-hydroxysteroid dehydrogenase 1 (Mus musculus, UniProt P50172); assay: Inhibition of mouse 11beta-HSD1
[2] = Aqueous solubility of the compound; format: physicochemical
Liver microsomes [3] = settings: human, 10 min, 300 µM
Description: Metabolic stability of the compound in human liver microsomes assessed as stability rate per mg of protein at 300 uM after 10 mins by LC-MS/MS analysis in presence of NADPH

Liver = settings: mouse, microsomes, 10 min, 300 µM
Description: Metabolic stability of the compound in mouse liver microsomes assessed as stability rate per mg of protein at 300 uM after 10 mins by LC-MS/MS analysis in presence of NADPH

Liver microsomes [4] = settings: rat, 10 min, 300 µM
Description: Metabolic stability of the compound in rat liver microsomes assessed as stability rate per mg of protein at 300 uM after 10 mins by LC-MS/MS analysis in presence of NADPH

[5] = Cmax in Balb/C mouse at 10 umol/kg, po; format: ADME, organism-based; parameters: dose 10 umol/kg, route oral; settings: in vivo
[6] = Tmax in Balb/C mouse at 10 umol/kg, po; format: ADME, organism-based; settings: in vivo
[7] = AUC (0 to 8 hrs) in Balb/C mouse at 10 umol/kg, po; format: ADME, organism-based; parameters: time < 8 hr, dose 10 umol/kg, route oral; settings: plasma
[8] = target: T1, 11-beta-hydroxysteroid dehydrogenase 1; assay: Inhibition of 11beta-HSD1 in mouse 3T3L1 cells; format: cell-based, 3T3-L1
[9] = tested on: UDP-glucuronosyltransferase (Mus musculus); assay: in vitro; settings: human, liver microsomes
[10] = target: T2, 11-beta-hydroxysteroid dehydrogenase 1 (Homo sapiens, UniProt P28845); assay: Inhibition of human 11beta-HSD1 expressed in HEK293 cells assessed as conversion of [3H]-cortisone to [3H]-cortisol by scintillation plate reader; format: cell-based
[11] = Inhibition of cynomolgus monkey 11beta-HSD1; parameters: species or system Macaca fascicularis
[12] = target: T2, 11-beta-hydroxysteroid dehydrogenase 1; assay: Inhibition of 11beta-HSD1 in human HEK cells; format: cell-based, HEK293
11β-HSD1 (Mus musculus) = settings: Homo sapiens
[13] = target: T3, 11-beta-hydroxysteroid dehydrogenase type 2 (Homo sapiens, UniProt P80365); assay: Inhibition of 11beta-HSD2
T3 sequence (P80365 whole entry): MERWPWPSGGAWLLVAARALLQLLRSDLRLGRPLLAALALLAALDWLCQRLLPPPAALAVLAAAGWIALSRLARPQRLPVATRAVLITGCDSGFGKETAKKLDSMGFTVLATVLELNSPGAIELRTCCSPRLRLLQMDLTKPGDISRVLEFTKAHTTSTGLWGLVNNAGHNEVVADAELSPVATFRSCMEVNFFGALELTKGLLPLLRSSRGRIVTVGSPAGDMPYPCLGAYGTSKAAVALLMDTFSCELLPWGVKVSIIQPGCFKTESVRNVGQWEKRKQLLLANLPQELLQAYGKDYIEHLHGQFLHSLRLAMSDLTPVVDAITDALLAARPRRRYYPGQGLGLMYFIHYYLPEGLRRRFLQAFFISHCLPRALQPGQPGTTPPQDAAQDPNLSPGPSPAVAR

T1 sequence (P50172 whole entry): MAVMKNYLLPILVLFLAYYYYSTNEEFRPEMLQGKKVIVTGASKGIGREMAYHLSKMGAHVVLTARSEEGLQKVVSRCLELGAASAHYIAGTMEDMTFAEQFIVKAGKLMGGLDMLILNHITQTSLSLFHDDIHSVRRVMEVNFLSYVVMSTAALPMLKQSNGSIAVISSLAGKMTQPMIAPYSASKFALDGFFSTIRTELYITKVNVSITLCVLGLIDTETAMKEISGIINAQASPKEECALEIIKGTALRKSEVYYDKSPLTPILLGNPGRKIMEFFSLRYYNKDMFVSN
T2 sequence (P28845 whole entry): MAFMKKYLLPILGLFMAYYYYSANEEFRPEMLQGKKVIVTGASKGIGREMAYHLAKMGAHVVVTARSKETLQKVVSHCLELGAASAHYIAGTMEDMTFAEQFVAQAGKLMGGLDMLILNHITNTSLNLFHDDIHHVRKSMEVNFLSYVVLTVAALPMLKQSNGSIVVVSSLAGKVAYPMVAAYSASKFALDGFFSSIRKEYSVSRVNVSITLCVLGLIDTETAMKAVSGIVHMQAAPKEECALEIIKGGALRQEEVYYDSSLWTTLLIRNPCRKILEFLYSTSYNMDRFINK

Structure (SMILES)	IC50 [1]	solubility [2]	Stability (Liver microsomes [3])	Stability (Liver)	Stability (Liver microsomes [4])	other results
N#Cc1c(O)nc(SCc2ccccc2Cl)c2cc(F)ccc12	7 nM	1 µg/mL (≈ 2.9 µM)	0.09 nmol/min	0 nmol/min	0.04 nmol/min	Cmax [5]: 2900 nM; Tmax [6]: 4 h; AUC(0-t) at 8 h [7]: 15 µM·h; IC50 [8]: 2250 nM
N#Cc1c(O)nc(SCc2ccccc2Cl)c2c1CCN(Cc1ccccc1)C2	4350 nM		0.08 nmol/min	0.04 nmol/min	0 nmol/min	
N#Cc1c(O)nc(SCc2ccccc2Cl)c2cccc(F)c12	7 nM		0.24 nmol/min	0.08 nmol/min	0.13 nmol/min	
N#Cc1c2c(c(-c3ccccc3)[nH]c1=O)CCCC2	4350 nM					
N#Cc1c(O)nc(SCc2ccccc2Cl)nc1-c1ccccc1	58 nM					IC50 [10]: 27 nM; IC50 [11]: 53 nM; Cmax [5]: 7100 nM; Tmax [6]: 1 h; AUC(0-t) at 8 h [7]: 37 µM·h; IC50 [12]: 1100 nM; IC50 [8]: 2850 nM; IC50 (11β-HSD1 (Mus musculus)): 58 nM; half-life [9]: > 3.33 h
N#Cc1c(=O)[nH]c(OCc2ccccc2Cl)c2cc(F)ccc12	21 nM	2 µg/mL (≈ 6.08 µM)	0.05 nmol/min	0.02 nmol/min	0.04 nmol/min	Cmax [5]: 2300 nM; Tmax [6]: 4 h; AUC(0-t) at 8 h [7]: 12 µM·h; IC50 [8]: 2160 nM
N#Cc1ncccc1CSc1nc(O)c(C#N)c2ccc(F)cc12	24 nM	3 µg/mL (≈ 8.92 µM)	0 nmol/min	0.02 nmol/min	0.02 nmol/min	
N#Cc1c(=O)[nH]c(SCc2ccccc2Cl)c2ccc(F)cc12	14 nM		0.12 nmol/min	0.1 nmol/min	0.05 nmol/min	
N#Cc1c(O)nc(SCc2ccccc2Cl)c2ccccc12	19 nM	1 µg/mL (≈ 3.06 µM)	0.17 nmol/min	0.2 nmol/min	0.23 nmol/min	
N#Cc1c(O)nc(SCc2ccccc2)c2c1-c1ccccc1CC2	50 nM		0.04 nmol/min	0 nmol/min	0.07 nmol/min	IC50 [10]: 5 nM; IC50 [13]: 386 nM
N#Cc1ccc2c(C#N)c(O)nc(SCc3ccccc3Cl)c2c1	62 nM	8 µg/mL (≈ 22.7 µM)	0.25 nmol/min	0.05 nmol/min	0.04 nmol/min	
N#Cc1c(=O)[nH]c(SCc2ccccc2Cl)c2c(F)cccc12	10 nM		0.12 nmol/min	0.08 nmol/min	0.05 nmol/min	
Oc1cc2c(c(SCc3ccccc3Cl)n1)CCCC2	9250 nM		0.27 nmol/min	0.3 nmol/min	0.3 nmol/min	
N#Cc1c2c(c(SCc3c(Cl)cccc3Cl)[nH]c1=O)CCCC2	3 nM	1 µg/mL (≈ 2.74 µM)	0 nmol/min	0 nmol/min	Unstable	

Second part, led by results:

IC50 [1]	solubility [2]	Stability (Liver microsomes [3])	Stability (Liver)	Stability (Liver microsomes [4])	Structure (SMILES)	other results
3830 nM	1 µg/mL (≈ 2.46 µM)	0.19 nmol/min	0.18 nmol/min	0.3 nmol/min	N#Cc1ccc(-c2c(O)nc(SCc3ccccc3Cl)c3c2CCCC3)cc1	
105 nM	238 µg/mL (≈ 734 µM)	0 nmol/min	0.01 nmol/min	0 nmol/min	N#Cc1ncccc1CSc1nc(O)c(C#N)c2c1COCC2	Cmax [5]: 500 nM; Tmax [6]: 4 h; AUC(0-t) at 8 h [7]: 2.9 µM·h; IC50 [8]: 3970 nM; half-life [9]: 0.05 h
10 nM	32 µg/mL (≈ 85.5 µM)	0 nmol/min	0.11 nmol/min	0.19 nmol/min	CS(=O)(=O)c1ccccc1CSc1nc(O)c(C#N)c2c1CCCC2	
16 nM					N#Cc1c(O)nc(SCc2ccccc2)c2c1CCCC2	
25 nM	1 µg/mL (≈ 3.02 µM)	0.09 nmol/min	0.3 nmol/min	0.3 nmol/min	N#Cc1c(O)nc(SCc2ccc(Cl)cc2)c2c1CCCC2	
6 nM	1 µg/mL (≈ 3.18 µM)	Unstable	Unstable	Unstable	N#Cc1c(O)nc(OCc2ccccc2Cl)c2c1CCCC2	
6 nM	7 µg/mL (≈ 21.8 µM)	0.15 nmol/min	0.23 nmol/min	0.25 nmol/min	N#Cc1ccccc1CSc1nc(O)c(C#N)c2c1CCCC2	
10 nM	38 µg/mL (≈ 118 µM)	0.04 nmol/min	0.05 nmol/min	0.05 nmol/min	N#Cc1ncccc1CSc1nc(O)c(C#N)c2c1CCCC2	
267 nM		0.07 nmol/min	0.12 nmol/min	0.14 nmol/min	N#Cc1c(O)nc(S(=O)(=O)Cc2ccccc2Cl)c2c1CCCC2	
6 nM	1 µg/mL (≈ 2.9 µM)	0.18 nmol/min	0.27 nmol/min	0.24 nmol/min	N#Cc1c(O)nc(SCCc2ccccc2Cl)c2c1CCCC2	
33 nM		0 nmol/min	0.16 nmol/min	0.24 nmol/min	N#Cc1c(O)nc(SCC2CCC2)c2c1CCCC2	
21 nM	8 µg/mL (≈ 24 µM)	0.12 nmol/min	0.07 nmol/min	0.04 nmol/min	N#Cc1c(O)nc(SCc2ccccc2Cl)c2c1CCOC2	
39 nM	1 µg/mL (≈ 3.02 µM)				N#Cc1c(O)nc(SCc2cccc(Cl)c2)c2c1CCCC2	
145 nM					N#Cc1c(O)nc(SCc2ccccc2-c2ccccc2)c2c1CCCC2	
9 nM		0.03 nmol/min	0.12 nmol/min	Unstable	N#Cc1ccc(F)c(CSc2nc(O)c(C#N)c3c2CCCC3)c1	
2270 nM					Oc1nc(SCc2ccccc2Cl)c2c(c1Br)CCCC2	
95 nM	1 µg/mL (≈ 3.16 µM)	0.07 nmol/min	0.17 nmol/min	0.15 nmol/min	N#Cc1c(O)nc(Sc2ccccc2Cl)c2c1CCCC2	
9 nM					COc1ccccc1CSc1nc(O)c(C#N)c2c1CCCC2	
	6 µg/mL (≈ 18.1 µM)	0.09 nmol/min	0.17 nmol/min	0.16 nmol/min	N#Cc1c(O)nc(SCc2ccccc2Cl)c2c1CCCC2	IC50 [11]: 1 nM; Cmax [5]: 30 nM; Tmax [6]: 1 h; AUC(0-t) at 8 h [7]: 0.2 µM·h; half-life [9]: < 0.0167 h

— ChEMBL document CHEMBL1909577, “Discovery of 3-hydroxy-4-cyano-isoquinolines as novel, potent, and selective inhibitors of human 11β-hydroxydehydrogenase 1 (11β-HSD1)” (Bioorg Med Chem Lett, 2011)
